In patent US20240360177A1, “PEPTIDES WITH ANTIMICROBIAL ACTIVITIES” (priority 2021, published 2024):
Converted amounts (≈) assume the structure as drawn. Non-standard residues stand in square brackets, D forms with d. Residues, ends and D or L forms follow the SMILES beside them. Tic = O=C(O)[C@@H]1Cc2ccccc2CN1

What was measured:
C. albicans = conditions: 24 h
C. glabrata = conditions: 24 h
C. parapsilosis = conditions: 24 h
C. krusei = conditions: 24 h
C. auris = conditions: 24 h
C. tropicalis = conditions: 24 h
C. dubliniensis = conditions: 24 h
in vitro = conditions: human, EC50 cytotoxicity in HepG2, intracellular ATP assay

SMILES	MIC C. albicans (C. albicans) [µg/mL]	MIC C. glabrata (C. glabrata) [µg/mL]	MIC C. parapsilosis (C. parapsilosis) [µg/mL]	MIC C. krusei (C. krusei) [µg/mL]	MIC C. auris (C. auris) [µg/mL]	MIC C. tropicalis (C. tropicalis) [µg/mL]	MIC C. dubliniensis (C. dubliniensis) [µg/mL]	Activity at 24 h MIC50 against Candida spp. (Candida spp.) [µg/mL]	Activity at 24 h MIC90 against Candida spp. (Candida spp.) [µg/mL]	Activity at 48 h MIC50 against Candida spp. (Candida spp.) [µg/mL]	Activity at 48 h MIC90 against Candida spp. (Candida spp.) [µg/mL]	EC50 (in vitro) [µg/mL]
N=C(N)NCCC[C@H](NC(=O)[C@@H](CCCNC(=N)N)NC(=O)[C@H](CCCNC(=N)N)NC(=O)[C@@H](CCCNC(=N)N)NC(=O)[C@@H]1CCCN1C(=O)[C@H](CCCNC(=N)N)NC(=O)[C@@H](CCCNC(=N)N)NC(=O)[C@H](CCCNC(=N)N)NC(=O)[C@@H](CCCNC(=N)N)NC(=O)[C@@H]1CCCN1C(=O)[C@@H](CCCNC(=N)N)NC(=O)[C@H](CCCNC(=N)N)NC(=O)[C@@H](CCCNC(=N)N)NC(=O)[C@@H]1CCCN1C(=O)[C@@H](CCCNC(=N)N)NC(=O)[C@H](CCCNC(=N)N)NC(=O)[C@@H](CCCNC(=N)N)NC(=O)[C@@H](N)CCCNC(=N)N)C(N)=O [SEQ ID NO: 63, RrRr-P-rRr-P-rRrR-P-rRrR-NH2] (H-R[dR]R[dR]P[dR]R[dR]P[dR]R[dR]RP[dR]R[dR]R-NH2)	0.5 (≈ 0.189 µM)	0.5 (≈ 0.189 µM)	0.5 (≈ 0.189 µM)	0.5 (≈ 0.189 µM)	0.5 (≈ 0.189 µM)	0.5 (≈ 0.189 µM)	0.5 (≈ 0.189 µM)	0.5	1	1	2	> 300
N=C(N)NCCC[C@H](NC(=O)[C@@H](CCCNC(=N)N)NC(=O)[C@H](CCCNC(=N)N)NC(=O)[C@@H](CCCNC(=N)N)NC(=O)[C@@H]1CCCN1C(=O)[C@H](CCCNC(=N)N)NC(=O)[C@@H](CCCNC(=N)N)NC(=O)[C@H](CCCNC(=N)N)NC(=O)[C@@H](CCCNC(=N)N)NC(=O)[C@@H]1CCCN1C(=O)[C@H](CCCNC(=N)N)NC(=O)[C@@H](CCCNC(=N)N)NC(=O)[C@H](CCCNC(=N)N)NC(=O)[C@@H](CCCNC(=N)N)NC(=O)[C@@H]1CCCN1C(=O)[C@@H](CCCNC(=N)N)NC(=O)[C@H](CCCNC(=N)N)NC(=O)[C@@H](CCCNC(=N)N)NC(=O)[C@@H](N)CCCNC(=N)N)C(N)=O [SEQ ID NO: 64, RrRr-P-rRrR-P-rRrR-P-rRrR-NH2] (H-R[dR]R[dR]P[dR]R[dR]RP[dR]R[dR]RP[dR]R[dR]R-NH2)	0.5 (≈ 0.178 µM)	0.5 (≈ 0.178 µM)	0.5 (≈ 0.178 µM)	0.5 (≈ 0.178 µM)	0.5 (≈ 0.178 µM)	0.5 (≈ 0.178 µM)	0.5 (≈ 0.178 µM)	0.5	1	0.5	2	> 300
N=C(N)NCCC[C@H](NC(=O)[C@@H](CCCNC(=N)N)NC(=O)[C@@H](N)CCCNC(=N)N)C(=O)N[C@H](CCCNC(=N)N)C(=O)N1CCC[C@H]1C(=O)N[C@H](CCCNC(=N)N)C(=O)N[C@@H](CCCNC(=N)N)C(=O)N[C@H](CCCNC(=N)N)C(=O)N1CCC[C@H]1C(=O)N[C@@H](CCCNC(=N)N)C(=O)N[C@H](CCCNC(=N)N)C(=O)N[C@@H](CCCNC(=N)N)C(=O)N1CCC[C@H]1C(=O)N[C@H](CCCNC(=N)N)C(=O)N[C@@H](CCCNC(=N)N)C(=O)N[C@H](CCCNC(=N)N)C(N)=O [SEQ ID NO: 65, RrRr-P-rRr-P-RrR-P-rRr-NH2] (H-R[dR]R[dR]P[dR]R[dR]PR[dR]RP[dR]R[dR]-NH2)	0.25 (≈ 0.107 µM)	0.5 (≈ 0.214 µM)	0.25 (≈ 0.107 µM)	0.5 (≈ 0.214 µM)	0.5 (≈ 0.214 µM)	0.5 (≈ 0.214 µM)	0.5 (≈ 0.214 µM)	0.5	2	0.5	32	> 300
N=C(N)NCCC[C@@H](N)C(=O)N[C@@H](CCCNC(=N)N)C(=O)N[C@H](CCCNC(=N)N)C(=O)N1Cc2ccccc2C[C@H]1C(=O)N[C@H](CCCNC(=N)N)C(=O)N[C@@H](CCCNC(=N)N)C(=O)N[C@H](CCCNC(=N)N)C(=O)N1Cc2ccccc2C[C@H]1C(=O)N[C@H](CCCNC(=N)N)C(=O)N[C@@H](CCCNC(=N)N)C(=O)N[C@H](CCCNC(=N)N)C(=O)N[C@@H](CCCNC(=N)N)C(=O)N1Cc2ccccc2C[C@H]1C(=O)N[C@H](CCCNC(=N)N)C(=O)N[C@@H](CCCNC(=N)N)C(=O)N[C@H](CCCNC(=N)N)C(=O)N[C@@H](CCCNC(=N)N)C(N)=O [SEQ ID NO: 76, rRr-(Tic)-rRr-(Tic)-rRrR-(Tic)-rRrR-NH2] (H-[dR]R[dR][Tic][dR]R[dR][Tic][dR]R[dR]R[Tic][dR]R[dR]R-NH2)	0.5 (≈ 0.186 µM)	0.5 (≈ 0.186 µM)	0.5 (≈ 0.186 µM)	1 (≈ 0.373 µM)	0.5 (≈ 0.186 µM)	0.5 (≈ 0.186 µM)	0.5 (≈ 0.186 µM)	–	–	–	–	139 (≈ 51.7 µM)
